The values below come from article PMC5584945, “Evaluation of robenidine analog NCL195 as a novel broad-spectrum antibacterial agent” (PLoS ONE, 2017).

Holding throughout (test): MIC alone and checkerboard with EDTA or polymyxin B
Common to all, as to type: cell-based

The test system of one assay is A. baumannii. The following applies: for MIC of polymyxin B in combination with NCL195: with NCL195 0.5 μg/ml; for MIC: Acinetobacter baumannii, read-out: MIC, agent alone. On the procedure: (§1) MICs for NCL812 and its analogs (serial two-fold dilutions commencing at 128 μg/ml) were determined (in duplicate) in round bottom 96-well microtitre trays (Sarstedt 82.1582.001), using the broth micro-dilution method recommended by the Clinical and Laboratory Standards Institute (CLSI). […] MIC50, MIC90 and MIC range for NCL812, NCL195 and NCL219 were calculated against each S. pneumoniae, S. aureus or VRE isolate. To assess the potential activity of NCL195 against Gram-negative bacteria, MICs against Acinetobacter spp, E. coli, K. pneumoniae, P. aeruginosa, Proteus spp and Neisseria meningitidis were performed in the presence or absence of 0.08 mM-20 mM EDTA in a standard checkerboard assay.

The next assay deals with E. coli. The following applies: for MIC of polymyxin B in combination with NCL195: with NCL195 0.25 μg/ml; for MIC: Escherichia coli, read-out: MIC, agent alone. The method, then: as §1
A further assay deals with K. pneumoniae. The following applies: for MIC of EDTA in combination with NCL195: with NCL195 4 μg/ml; for MIC: Klebsiella pneumoniae, read-out: MIC, agent alone. On the procedure: as §1
In the next assay the test system is P. aeruginosa. The following applies: for MIC of polymyxin B in combination with NCL195: with NCL195 1 μg/ml; for MIC: Pseudomonas aeruginosa, read-out: MIC, agent alone. On the procedure: as §1

Read-outs that look alike come from different tables or passages of the source.

Take Polymyxin B sulfate: the “MIC, agent alone” value in the assay on A. baumannii (A. baumannii ATCC 12457) is 0.5 µg/mL; with A. baumannii (A. baumannii ATCC 19606), 0.5 µg/mL; in the assay on E. coli (E. coli ATCC 11229), 0.25 µg/mL; in the assay on E. coli (E. coli ATCC 25922), 0.25 µg/mL; with K. pneumoniae (K. pneumoniae ATCC 4352) it was 0.25 µg/mL; with K. pneumoniae (K. pneumoniae ATCC 33495) it was 0.25 µg/mL. For the same compound, the “MIC, agent alone” value in the assay on P. aeruginosa (P. aeruginosa ATCC 27853) and with P. aeruginosa (P. aeruginosa PA01) was 0.5 µg/mL throughout. The “MIC of polymyxin B in combination with NCL195” value in the assay with A. baumannii (A. baumannii ATCC 12457) was found to be 0.125 µg/mL; in the assay on A. baumannii (A. baumannii ATCC 19606) it was 0.125 µg/mL; with E. coli (E. coli ATCC 11229), 0.125 µg/mL; in the assay with E. coli (E. coli ATCC 25922), 0.125 µg/mL; in the assay on K. pneumoniae (K. pneumoniae ATCC 4352, with NCL195 0.5 μg/ml), 0.125 µg/mL; in the assay on K. pneumoniae (K. pneumoniae ATCC 33495, with NCL195 0.25 μg/ml), 0.125 µg/mL. For the same compound, the “MIC of polymyxin B in combination with NCL195” value in the assay on P. aeruginosa (P. aeruginosa ATCC 27853) and in the assay with P. aeruginosa (P. aeruginosa PA01) was 0.125 µg/mL each time.
On to `O=C(O)CN(CCN(CC(=O)O)CC(=O)O)CC(=O)O` [EDTA, Ethylenediaminetetraacetic acid], for which the “MIC of EDTA in combination with NCL195” value was determined as 250 µM with A. baumannii (A. baumannii ATCC 12457, with NCL195 4 μg/ml); 500 µM with A. baumannii (A. baumannii ATCC 19606, with NCL195 2 μg/ml); 625 µM in the assay with E. coli (E. coli ATCC 11229, with NCL195 8 μg/ml); 2500 µM with E. coli (E. coli ATCC 25922, with NCL195 4 μg/ml); 10000 µM in the assay with K. pneumoniae (K. pneumoniae ATCC 4352); 10000 µM in the assay with K. pneumoniae (K. pneumoniae ATCC 33495). Besides, the “MIC of EDTA in combination with NCL195” value was determined as 5000 µM with P. aeruginosa (P. aeruginosa ATCC 27853, with NCL195 2 μg/ml) and 1250 µM with P. aeruginosa (P. aeruginosa PA01, with NCL195 0.25 μg/ml). Moreover, the MIC – broadly, the lowest concentration that inhibits growth of the organism – was 500 µM in the assay with A. baumannii (ATCC12457, A. baumannii ATCC 12457); 1000 µM in the assay with A. baumannii (ATCC19606, A. baumannii ATCC 19606); 2500 µM in the assay with E. coli (ATCC11229, E. coli ATCC 11229); 10000 µM in the assay on E. coli (ATCC25922, E. coli ATCC 25922); more than 30000 µM in the assay with K. pneumoniae (ATCC4352, K. pneumoniae ATCC 4352); more than 30000 µM in the assay with K. pneumoniae (ATCC33495, K. pneumoniae ATCC 33495). In addition, the MIC stood at 10000 µM in the assay on P. aeruginosa (ATCC27853, P. aeruginosa ATCC 27853) and 2500 µM in the assay on P. aeruginosa (P. aeruginosa PA01).
